Structures can show the parent of a compound that is named as a salt.
What was measured:
[1] = target: T1, human recombinant bradykinin B1 receptor (Homo sapiens, UniProt P46663); assay: Human recombinant bradykinin B1 receptor binding; details: CHO cell membranes, [3H]-[Des-Arg10] Kallidin radioligand; read-out: B1 binding
T1 construct: purchased Euroscreen ES-091; host or cells: CHO cells
T1 sequence (P46663 1-353): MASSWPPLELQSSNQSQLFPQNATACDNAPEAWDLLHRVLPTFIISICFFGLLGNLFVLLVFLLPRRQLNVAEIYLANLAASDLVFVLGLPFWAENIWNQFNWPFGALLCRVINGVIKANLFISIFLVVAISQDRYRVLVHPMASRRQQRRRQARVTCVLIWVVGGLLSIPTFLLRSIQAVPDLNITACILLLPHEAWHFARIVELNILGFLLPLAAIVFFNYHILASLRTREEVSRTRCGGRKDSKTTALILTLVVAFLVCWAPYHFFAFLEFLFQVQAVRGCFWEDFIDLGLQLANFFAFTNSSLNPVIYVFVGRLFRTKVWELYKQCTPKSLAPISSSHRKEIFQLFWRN
Procedure: Receptor Binding Assays 1. Human Recombinant Bradykinin B1 Receptor Binding
Binding assays were carried out on human recombinant bradykinin) receptors (expressed in CHO cells) according to the Euroscreen Technical Data Sheet (Cat.No.:ES-091). 20 μg protein/tube was incubated with [3,4-prolyl-3,4-^3H(N)]-[Des-Arg^10] Kallidin as radioligand. Non specific binding was determined in the presence of 10 μM Lys-des-Arg^9-Bradykinin. The final incubation volume was 250 μl. Samples were incubated for 15 min. at 25° C. then were rapidly vacuum filtered through GF/B filters presoaked for at least 1 h in 0.5% PEI. Radioactivity was determined by liquid scintillation spectroscopy.

[2] = target: T2, recombinant human B1 receptors (Homo sapiens, UniProt P46663); assay: Functional assay: antagonist potency by cytosolic calcium measurement in CHO-B1 cells (agonist LysDABK); assay type: cell-based; details: CHO-B1 cells, LysDABK at EC80, fluo-4 [Ca2+]i; read-out: B1 func.
T2 construct: host or cells: CHO (CHO-B1)
T2 sequence (P46663 1-353): T1 sequence (P46663 1-353)
Procedure: Assessment of Antagonist Potency at B1 and B2 Receptors In Vitro by Measurement of Cytosolic Calcium Ion Concentration with a Plate Reader Fluorimeter in Cells Expressing Recombinant Human B1 or B2 Receptors
Chinese hamster ovary (CHO) cells stably expressing recombinant human B1 (CHO-B1, Euroscreen) or B2 (CHO-B2, Perkin-Elmer) receptors were cultured in Dulbecco's Modified Eagle's Medium (DMEM) containing 10% Fetal Calf Serum (FCS), 100 U/ml penicillin, 0.1 mg/ml streptomycin, 0.25 μg/ml amphotericin B, 1% Minimum Essential Medium Eagle (MEM), non essential amino acid solution, 600 μg/ml G418, 1% pyruvate (for the B2 cell line). Cells were kept at 37° C. in a humidified incubator in an atmosphere of 5% CO2/95% air and were passaged 1:4 three times a week. Cells were plated at 1.5-2.5×10^4 cell/well on standard 96-well microplates, measurements of cytosolic calcium ion concentration ([Ca^2+]i) were carried out 1-2 days after cell plating.
Measurements of [Ca^2+]i were carried out on CHO-B1 and CHO-B2 cells stably expressing human B1 and B2 receptors, respectively. Cells were grown in standard 96-well microplates and before the measurement were loaded with a fluorescent Ca^2+-sensitive dye, fluo-4/AM (2 μM): after removing the culture medium the dye was added to the cells (dissolved in assay buffer: 145 mM NaCl, 5 mM KCl, 2 mM MgCl2, 2 mM CaCl2, 10 mM HEPES, 20 mM D-glucose, 2 mM probenecid, 100 μl/well) and cells were incubated at 37° C. in a humidified incubator in an atmosphere of 5% CO2/95% air for 40-120 min. To stop dye loading cells were washed twice with assay buffer. After washing, various concentrations of the test compounds (diluted in extracellular medium from a DMSO stock solution, final DMSO concentration was <0.1%) or buffer were added to each well depending on the experimental setup. After incubation at 37° C. for 20-25 min. baseline and agonist-evoked changes of [Ca^2+]i were measured column by column with a plate reader fluorimeter (Fluoroskan Ascent, Labsystems). Excitation and detection of emission was carried out from the bottom of the plate. Filters used for Fluo-4: excitation filter—485 nm, emission filter—538 nm. The whole measurement process was performed at 37° C. and was controlled by custom software. Inhibitory potency of the test compounds was assessed by measuring the reduction in the agonist-evoked [Ca^2+]i-elevation in the presence of different concentrations of the compounds. The agonists were LysDABK for CHO-B1, and bradykinin for CHO-B2 cells. Agonists were applied at an EC80 concentration, the EC80-values were derived from daily determined dose-response curves. Fluorescence data were expressed as ΔF/F (fluorescence change normalized to baseline). All treatments on a single plate were measured in multiple wells. Data from all wells with the same treatment were averaged and the average values were used for analysis. Inhibitory potency of a compound at a single concentration point was expressed as percent inhibition of the control agonist response. Sigmoidal concentration-inhibition curves were fitted to the data (derived from at least three independent experiments) and IC50-values were determined as the concentration that produces half of the maximal inhibition caused by the compound.

| Structure (SMILES) | Ki [1] [nM] | IC50 [2] [nM] |
| --- | --- | --- |
| CN1CCC(N2CCN(C(=O)CNC(=O)c3ccc(S(=O)(=O)Nc4ccccc4Oc4ccccc4)cc3)CC2)CC1 [Example 2.34, N-{2-[4-(1-Methyl-piperidin-4-yl)-piperazin-1-yl]-2-oxo-ethyl}-4-(2-phenoxy-phenylsulfamoyl)-benzamide] | < 20 | < 20 |
| CN(C)CCCN1CCN(C(=O)CNC(=O)c2ccc(S(=O)(=O)Nc3ccccc3C(=O)c3ccccc3)cc2)CC1 [Example 3.14, 4-(2-Benzoyl-phenylsulfamoyl)-N-{2-[4-(3-dimethylamino-propyl)-piperazin-1-yl]-2-oxo-ethyl}-benzamide] | < 20 | < 20 |
| O=C(NCC(=O)N1CCC(CCN2CCCC2)CC1)c1ccc(S(=O)(=O)Nc2ccccc2Oc2ccccc2)cc1 [Example 2.7, N-{2-Oxo-2-[4-(2-pyrrolidin-1-yl-ethyl)-piperidin-1-yl]-ethyl}-4-(2-phenoxy-phenylsulfamoyl)-benzamide] | < 20 | < 20 |
| O=C(NCC(=O)N1CCN(CCN2CCCC2)CC1)c1ccc(S(=O)(=O)Nc2ccccc2Oc2ccc(Cl)cc2Cl)cc1 [Example 1.1, 4-[2-(2,4-Dichloro-phenoxy)-phenylsulfamoyl]-N-{2-oxo-2-[4-(2-pyrrolidin-1-yl-ethyl)-piperazin-1-yl]-ethyl}-benzamide] | < 20 | < 20 |
| O=C(NCC(=O)N1CCC(C(F)(F)F)CC1)c1ccc(S(=O)(=O)Nc2ccccc2C(=O)c2ccccc2)cc1 [Example 3.6, 4-(2-Benzoyl-phenylsulfamoyl)-N-[2-oxo-2-(4-trifluoromethyl-piperidin-1-yl)-ethyl]-benzamide] | < 20 | < 20 |
| O=C(NCC(=O)N1CCN(CCCN2CCOCC2)CC1)c1ccc(S(=O)(=O)Nc2ccccc2Oc2ccc(Cl)cc2Cl)cc1 [Example 1.12, 4-[2-(2,4-Dichloro-phenoxy)-phenylsulfamoyl]-N-{2-[4-(3-morpholin-4-yl-propyl)-piperazin-1-yl]-2-oxo-ethyl}-benzamide] | < 20 | < 20 |
| CN(C)CCN1CCN(C(=O)CNC(=O)c2ccc(S(=O)(=O)Nc3ccccc3Oc3ccc(Cl)cc3Cl)cc2)CC1 [Example 1.2, 4-[2-(2,4-Dichloro-phenoxy)-phenylsulfamoyl]-N-{2-[4-(2-dimethylamino-ethyl)-piperazin-1-yl]-2-oxo-ethyl}-benzamide] | < 20 | < 20 |
| O=C(NCC(=O)N1CCN(CCCN2CCCC2)CC1)c1ccc(S(=O)(=O)Nc2ccccc2C(=O)c2ccccc2)cc1 [Example 3.13, 4-(2-Benzoyl-phenylsulfamoyl)-N-{2-oxo-2-[4-(3-pyrrolidin-1-yl-propyl)-piperazin-1-yl]-ethyl}-benzamide] | < 20 | < 20 |
| NC1CCN(C(=O)CNC(=O)c2ccc(S(=O)(=O)Nc3ccccc3Oc3ccccc3)cc2)CC1 [Example 11.3, N-[2-(4-Amino-piperidin-1-yl)-2-oxo-ethyl]-4-(2-phenoxy-phenylsulfamoyl)-benzamide hydrochloride] | < 20 | < 20 |
| CN(C)CCN1CCN(C(=O)CNC(=O)c2ccc(S(=O)(=O)Nc3ccccc3Oc3ccccc3)cc2)CC1 [Example 2.3, N-{2-[4-(2-Dimethylamino-ethyl)-piperazin-1-yl]-2-oxo-ethyl}-4-(2-phenoxy-phenylsulfamoyl)-benzamide] | < 20 | < 20 |
| CN1CCCC(CN2CCN(C(=O)CNC(=O)c3ccc(S(=O)(=O)Nc4ccccc4Oc4ccc(Cl)cc4Cl)cc3)CC2)C1 (stereo not drawn) [Example 1.5, 4-[2-(2,4-Dichloro-phenoxy)-phenylsulfamoyl]-N-{2-[4-(1-methyl-piperidin-3-ylmethyl)-piperazin-1-yl]-2-oxo-ethyl}-benzamide] | < 20 | < 20 |
| CN(C)CCN1CCN(C(=O)CNC(=O)c2ccc(S(=O)(=O)Nc3ccccc3C(=O)c3ccccc3)cc2)CC1 [Example 3.2, 4-(2-Benzoyl-phenylsulfamoyl)-N-{2-[4-(2-dimethylamino-ethyl)-piperazin-1-yl]-2-oxo-ethyl}-benzamide] | < 20 | < 20 |
